Experimental data as given in patent EP1731520A1, “Pyrrolo[2,3-d]pyrimidine derivatives which are antagonists of adenosine A1, A2A, and A3” (OSI Pharmaceuticals, Inc., priority 1999, dated 2001).
Where two headings read alike, the source gives them in different places. Each block holds one compound with its values, some of them ahead of it.

Key:
[1] = biological target: human A1 receptor subtype (Homo sapiens, UniProt P30542)
[2] = biological target: human adenosine A1 receptor (Homo sapiens, UniProt P30542); test: Yeast β-Galactosidase reporter gene assay (strain CY12660): inhibition of NECA-induced β-Galactosidase activity; details: read-out: Al Yeast IC50
[3] = biological target: human A2a receptor subtype (Homo sapiens, UniProt P29274); test: Adenosine 2a receptor subtype competition radioligand binding, [3H] CGS-21680, HEK293 membranes; details: for Ki-A2a (selectivity versus other three subtypes): Table 16, Adenosine A2a Receptor Selective Compounds
[4] = biological target: T1, human A3 receptor subtype (Homo sapiens, UniProt P0DMS8); test: Adenosine 3 receptor competition radioligand binding, [125I] AB-MECA, HEK293 membranes; details: for Ki-A3 (selectivity versus other three subtypes): Table 17, Adenosine A3 Receptor Selective Compounds
T1 sequence (P0DMS8 1-318): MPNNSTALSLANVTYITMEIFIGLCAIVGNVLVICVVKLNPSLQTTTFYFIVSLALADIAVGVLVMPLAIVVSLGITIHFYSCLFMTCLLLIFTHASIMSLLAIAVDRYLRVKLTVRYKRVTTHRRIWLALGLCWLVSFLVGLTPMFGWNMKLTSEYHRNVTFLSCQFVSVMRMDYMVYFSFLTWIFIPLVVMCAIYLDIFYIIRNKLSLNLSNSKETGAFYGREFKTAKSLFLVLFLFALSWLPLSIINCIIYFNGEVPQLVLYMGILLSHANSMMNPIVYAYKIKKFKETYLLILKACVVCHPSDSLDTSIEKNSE

[5] = biological target: T2, human A2b receptor subtype (Homo sapiens, UniProt P29275); test: Adenosine 2b receptor subtype competition radioligand binding, [3H] DPCPX, HEK293 membranes
T2 sequence (P29275 1-332): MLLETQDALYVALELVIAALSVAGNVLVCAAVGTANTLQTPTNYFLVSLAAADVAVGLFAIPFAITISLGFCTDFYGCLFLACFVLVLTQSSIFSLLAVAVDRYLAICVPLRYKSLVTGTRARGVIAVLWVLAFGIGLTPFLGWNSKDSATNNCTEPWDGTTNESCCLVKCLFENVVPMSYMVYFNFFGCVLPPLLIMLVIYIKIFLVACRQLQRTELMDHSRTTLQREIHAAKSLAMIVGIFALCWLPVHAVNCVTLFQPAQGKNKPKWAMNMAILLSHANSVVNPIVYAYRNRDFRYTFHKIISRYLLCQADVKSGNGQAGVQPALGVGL

[6] = biological target: T3, human A3 receptor (Homo sapiens, UniProt P0DMS8); test: Displacement binding of [3H]CPX, yeast membranes expressing hA3R
T3 sequence (P0DMS8 1-318): T1 sequence (P0DMS8 1-318)

[7] = tested on: human A1 adenosine receptor; details: synthetic agonist; cited from earlier work
[8] = biological target: human A2a receptor; details: read-out: Reported Ki; agonist; cited from earlier work
[9] = read-out: Binding Ki (nM) A2a, Table 13
[10] = read-out: Binding Ki (nM) A2b, Table 13

Chain of human A1 receptor subtype (P30542 whole entry): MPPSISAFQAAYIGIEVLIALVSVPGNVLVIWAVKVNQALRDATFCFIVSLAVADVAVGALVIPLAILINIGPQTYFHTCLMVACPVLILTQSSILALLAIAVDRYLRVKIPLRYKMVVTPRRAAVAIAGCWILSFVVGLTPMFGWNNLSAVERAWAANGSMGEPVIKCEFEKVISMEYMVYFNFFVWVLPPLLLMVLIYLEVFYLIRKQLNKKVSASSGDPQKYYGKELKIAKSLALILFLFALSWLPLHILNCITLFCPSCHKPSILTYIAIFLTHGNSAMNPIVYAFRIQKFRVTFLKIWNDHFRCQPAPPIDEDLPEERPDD
Chain of human A2a receptor subtype (P29274 whole entry): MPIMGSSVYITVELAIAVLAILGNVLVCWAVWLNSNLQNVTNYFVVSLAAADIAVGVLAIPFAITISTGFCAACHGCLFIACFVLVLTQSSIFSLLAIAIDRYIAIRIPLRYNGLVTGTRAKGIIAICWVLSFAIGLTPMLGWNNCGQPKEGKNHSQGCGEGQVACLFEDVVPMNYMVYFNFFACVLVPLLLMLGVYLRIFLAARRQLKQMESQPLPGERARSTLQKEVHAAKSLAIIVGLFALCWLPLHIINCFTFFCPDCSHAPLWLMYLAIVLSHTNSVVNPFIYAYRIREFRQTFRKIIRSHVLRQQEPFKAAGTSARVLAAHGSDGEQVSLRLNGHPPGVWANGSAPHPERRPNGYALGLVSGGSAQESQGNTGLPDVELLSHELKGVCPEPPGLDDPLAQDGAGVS
Chain of human adenosine A1 receptor (P30542 whole entry): as the sequence (P30542 whole entry) above

Ki ([1]; read-out: Al Binding Ki, Table 7, Effect of C2-Substituent): 61.1 nM
IC50 ([2]; Table 7, Effect of C2-Substituent): 297 nM
Compound: Cc1[nH]c2nc(-c3ccsc3)nc(N[C@H]3CC[C@H](O)CC3)c2c1C [Compound 704]

Compound: OC[C@H]1CCCN1c1nc(-c2ccccc2)nc2[nH]ccc12 [Compound 1603]
Ki-A2a (selectivity versus other three subtypes) [3]: * (at least 5 times more selective than other three subtypes.)

Compound: CC(=O)NCCNc1nc(-c2ccccc2)nc2[nH]c(CNc3ccccc3)cc12 [Compound 1404]
Ki ([3]; read-out: Binding Data Ki (nM) A2a, Table 14): 31 nM

Compound: O[C@H]1CC[C@H](Nc2nc(-c3cccc(F)c3)nc3[nH]ccc23)CC1 [Compound 1319, 4-(trans-4-hydroxycyclohexyl)amino-2-(3-fluorophenyl)-7H-pyrrolo [2,3d] pyrimidine]
Ki [4]: 270 nM
Ki [5]: 802 nM
Ki [3]: 206 nM

Ki [4]: 630 ± 76 nM
Ki [5]: 2310 ± 926 nM
Compound: O[C@H]1CC[C@H](Nc2nc(-c3ccccc3)nc3[nH]ccc23)CC1 [Compound 1318]

Compound: CC(=O)NCCNc1nc(-c2ccccc2)nc2[nH]c(C)c(C)c12 [Compound 1300]
Ki [3, 9]: 18 to 48.6 nM

Compound: O[C@H]1CC[C@H](Nc2nc(-c3ccncc3)nc3[nH]ccc23)CC1 [Compound 1321, 4-(trans-4-hydroxycyclohexyl)amino-2-(4-pyridyl)-7H-pyrrolo[2,3d]pyrimidine]
activity at 10 µM ([4]; read-out: % activity @ 10 µM, A3): 54%
Ki [5]: 1030 nM
Ki [3]: 131 nM

IC50 ([2]; Table 10, Effect of N6-Substituent): 3710 nM
Compound: Cc1[nH]c2nc(-c3ccccc3)nc(NCCCO)c2c1C [Compound 1015]

Compound: OC[C@H]1C[C@@H](O)CN1c1nc(-c2ccncc2)nc2[nH]ccc12 [Compound 1605]
Ki-A2a (selectivity versus other three subtypes) [3]: * (at least 5 times more selective than other three subtypes.)

Compound: OCC1CCCN(c2nc(-c3ccncc3)nc3[nH]ccc23)C1 (stereo not drawn) [Compound 1607]
Ki-A2a (selectivity versus other three subtypes) [3]: * (at least 5 times more selective than other three subtypes.)

Compound: O[C@H]1CC[C@H](Nc2nc(-c3cccc(Cl)c3)nc3[nH]ccc23)CC1 [Compound 1320, 4-(trans-4-hydroxycyclohexyl)amino-2-(3-chlorophenyl)-7H-pyrrolo[2,3d] pyrimidine]
Ki [4]: 419 nM
Ki [5]: 530 nM
Ki [3]: 531 nM

Compound: CC(=O)NCCNc1nc(-c2ccncc2)nc2[nH]c(C)c(CN(C)Cc3ccccc3)c12 [Compound 1608]
Ki-A2a (selectivity versus other three subtypes) [3]: * (at least 5 times more selective than other three subtypes.)

Compound: Nc1nc2ccc(Cl)cc2c2nc(-c3ccco3)nn12 [CGS-15943]
IC50 [6]: 55.5 nM

Compound: CC(Cc1ccccc1)Nc1ncnc2c1ncn2[C@@H]1O[C@H](CO)[C@@H](O)[C@H]1O (single isomer, unassigned; (-)) [PIA, (-)-N6-(2-phenylisopropyl)-adenosine]
reported affinity [7]: approximately 50 nM

Compound: Cc1[nH]c2nc(-c3ccccc3)nc(NCCNC(=O)C3(N)CC3)c2c1C [Compound 1313]
% activity @ 10 µM, A1 ([1]; Table 13, in %, 10 µM): 30%
% activity @ 10 µM, A2a ([3]; Table 13, in %, 10 µM): 65%

Compound: NC(=O)[C@H]1CCCN1c1nc(-c2cccc(F)c2)nc2[nH]ccc12 [Compound 1600]
Ki-A2a (selectivity versus other three subtypes) [3]: * (at least 5 times more selective than other three subtypes.)

Compound: NC(=O)[C@H]1CCCN1c1nc(-c2ccncc2)nc2[nH]ccc12 [Compound 1602]
Ki-A2a (selectivity versus other three subtypes) [3]: * (at least 5 times more selective than other three subtypes.)

Compound: c1ccc(-c2cc3c(N4CCNCC4)nc(-c4ccncc4)nc3[nH]2)cc1 [Compound 1604]
Ki-A2a (selectivity versus other three subtypes) [3]: * (at least 5 times more selective than other three subtypes.)

Compound: OCC1CN(c2nc(-c3ccccc3)nc3[nH]ccc23)C1 [Compound 1711]
Ki-A3 (selectivity versus other three subtypes) [4]: * (at least 10 times more selective than other three subtypes.)

Compound: CC(C)C(Nc1nc(-c2ccccc2)nc2[nH]c(-c3ccccc3)cc12)C(N)=O (stereo not drawn) [Compound 1709]
Ki-A3 (selectivity versus other three subtypes) [4]: * (at least 10 times more selective than other three subtypes.)

Compound: Cc1[nH]c2nc(-c3ccccc3)nc(NCCCNC(=O)CN)c2c1C [Compound 1316]
Ki [4]: 97 nM
Ki-A3 (selectivity versus other three subtypes) [4]: * (at least 10 times more selective than other three subtypes.)
Ki [5, 10]: 710 nM
Ki [3, 9]: 710 nM

A3 receptor binding affinity relative to reference compound 1308 ([4]; competition radio ligand binding): greater than 10 times
Compound: c1ccc(-c2nc(NCCc3cnc[nH]3)c3cc[nH]c3n2)cc1 [Compound 1720, [2-(3H-Imidazol-4-yl)-ethyl]-(2-phenyl-7H-pyrrolo[2,3-d]pyrimidin-4-yl)-amine]

Compound: Cc1[nH]c2nc(-c3ccccc3)nc(NCCCNC(=O)CCN)c2c1C [Compound 1315]
Ki ([1]; read-out: Binding Ki (nM) A1, Table 13, Profile of Selective Adenosine Antagonists): 75 nM
Ki ([4]; read-out: Binding Ki (nM) A3, Table 13): 507 nM
Ki [5, 10]: 3.4 nM
Ki [3, 9]: 720 nM

Compound: CC(=O)NC(CNc1nc(-c2ccccc2)nc2[nH]c(C)c(C)c12)C(C)C (stereo not drawn) [Compound 1700]
Ki-A3 (selectivity versus other three subtypes) [4]: * (at least 10 times more selective than other three subtypes.)

Compound: Clc1cccc(OCc2cc3c(NCCc4ccc[nH]4)nc(-c4ccccc4)nc3[nH]2)c1 [Compound 1712]
Ki-A3 (selectivity versus other three subtypes) [4]: * (at least 10 times more selective than other three subtypes.)

Compound: Cc1[nH]c2nc(-c3ccccc3)nc(NC3CCC(OC(=O)CN)C3)c2c1C (stereo not drawn) [Compound 1705]
Ki-A3 (selectivity versus other three subtypes) [4]: * (at least 10 times more selective than other three subtypes.)

Compound: OC[C@H]1CCCN1c1nc(-c2ccncc2)nc2[nH]ccc12 [Compound 1601]
Ki-A2a (selectivity versus other three subtypes) [3]: * (at least 5 times more selective than other three subtypes.)

Compound: CNC(=O)NCCCNc1nc(-c2ccccc2)nc2[nH]c(C)c(C)c12 [Compound 1310]
activity at 10 µM ([3]; read-out: % activity @ 10 µM, A2a): 76%

Compound: CC(=O)NCCNc1nc(-c2ccccc2)nc2[nH]c(CN3CCC[C@H]3CNc3ccccc3)cc12 [Compound 1713]
Ki-A3 (selectivity versus other three subtypes) [4]: * (at least 10 times more selective than other three subtypes.)

Compound: CCNC(=O)NCCCNc1nc(-c2ccccc2)nc2[nH]c(C)c(C)c12 [Compound 1704]
Ki-A3 (selectivity versus other three subtypes) [4]: * (at least 10 times more selective than other three subtypes.)

Compound: COC(=O)C(C)(C)NCc1cc2c(N3CCC[C@@H]3CO)nc(-c3ccccc3)nc2[nH]1 [Compound 1606]
Ki-A2a (selectivity versus other three subtypes) [3]: * (at least 5 times more selective than other three subtypes.)

Compound: O=C1NCCN1CCNc1nc(-c2ccccc2)nc2[nH]c(-c3ccccc3)cc12 [Compound 1708]
Ki-A3 (selectivity versus other three subtypes) [4]: * (at least 10 times more selective than other three subtypes.)
